This note sets out measurements from ChEMBL document CHEMBL1135799, “Graphical model for estimating oral bioavailability of drugs in humans and other species from their Caco-2 permeability and in vitro liver enzyme metabolic stability rates” (J Med Chem, 2002).

Data set [1] can be described thus: Oral bioavailability in human. It counts as ADME, organism-based. The following applies: in vivo.
Data set [2] is described as follows: In vitro rate of absorption observed as Caco-2 permeability in humans. It counts as ADME, cell-based. The note with it: human, read-out: Papp e-6. On the technique in general: Caco-2 monolayers are a common model of the intestinal barrier.
A short description of data set [3]: Metabolic stability observed at 30 min after administration in human liver microsomes. The data set is classed as ADME, Microsome. The following applies: read-out: R. In general terms: Liver microsomes are vesicles of endoplasmic reticulum, rich in cytochrome P450 enzymes.

As a reminder, the bioavailability is dose-corrected exposure relative to a reference, in per cent. Lower therefore signals little systemic uptake. For orientation: Papp means the rate of passage across a membrane or cell layer, normalised by area and donor concentration.

Compound `NC(=O)N1c2ccccc2C=Cc2ccccc21` [CARBAMAZEPINE] had a bioavailability in data set [1] of 70%. In addition, the Papp in data set [2] was 22.8 ×10⁻⁶ cm/s. The remaining at 0.5 h in data set [3] was 96%.
In the same order, the values of `COc1ccc2c(c1)c(CC(=O)O)c(C)n2C(=O)c1ccc(Cl)cc1` [INDOMETHACIN] are 98%, 20.4 ×10⁻⁶ cm/s and 95%.
Take `OC[C@@H](O)[C@@H](O)[C@H](O)[C@H](O)CO` [MANNITOL]: the bioavailability in data set [1] stood at 18%. For the same compound, the Papp in data set [2] was determined as 2 ×10⁻⁶ cm/s. The remaining at 0.5 h in data set [3] is 100%.
In the same order, the values of `COCCc1ccc(OCC(O)CNC(C)C)cc1` (centres undefined) [METOPROLOL] are 38%, 27 ×10⁻⁶ cm/s and 73%.
The matching figures for `CC(C)NCC(O)COc1cccc2ccccc12` (centres undefined) [PROPRANOLOL]: 26%, 41.9 ×10⁻⁶ cm/s and 29%.
In the same order, the values of `CC(C)(C)NC[C@H](O)COc1nsnc1N1CCOCC1` [TIMOLOL] are 50%, 12.8 ×10⁻⁶ cm/s and 71%.
As for `CC(=O)CC(c1ccccc1)c1c(O)c2ccccc2oc1=O` (centres undefined) [WARFARIN], the apparent permeability (Papp) in data set [2] came out at 38.3 ×10⁻⁶ cm/s.
